This is an account of results in ChEMBL document CHEMBL4396974, “Synthesis and evaluation of a novel quinoline-triazole analogs for antitubercular properties via molecular hybridization approach” (Bioorg Med Chem Lett, 2019).

Structures are written as SMILES. In brackets after ≈: the same amount, converted by molar mass. Activity calls are given as the source filed them. The rule behind the calls is not given here.

The subject of the assay is Mycobacterium tuberculosis variant bovis. In words: Antimycobacterial activity against Mycobacterium bovis assessed as 90 percent growth inhibition measured after 120 hrs by turbidometric analysis. In kind it is functional.
As to `COc1nc2ccc(Br)cc2cc1C(c1ccccc1)n1cc(-c2ccc(OC(F)(F)F)cc2)nn1` (configuration not stated), the MIC90 worked out at 41 µM (≈ 22.8 µg/mL).

For `CCCCc1cn(C(c2ccccc2)c2cc3cc(Br)ccc3nc2OC)nn1` (configuration not stated), the MIC90 is 50.2 µM (≈ 22.7 µg/mL).

Turning to `COc1nc2ccc(Br)cc2cc1C(c1ccccc1)n1cc(-c2ccccc2C(F)(F)F)nn1` (configuration not stated), the MIC90 came to 174 µM (≈ 93.8 µg/mL).

On to `CO[C@H]1/C=C/O[C@@]2(C)Oc3c(C)c(O)c4c(O)c(c(/C=N/N5CCN(C)CC5)c(O)c4c3C2=O)NC(=O)/C(C)=C\C=C\[C@H](C)[C@H](O)[C@@H](C)[C@@H](O)[C@@H](C)[C@H](OC(C)=O)[C@@H]1C` [RIFAMPIN], for which the MIC90 is 2.2 µM (≈ 1.81 µg/mL).

Consider `CCCCCCCc1cn(C(c2ccccc2)c2cc3cc(Br)ccc3nc2OC)nn1` (configuration not stated), for which the MIC90 is 71.9 µM (≈ 35.5 µg/mL).

`COc1nc2ccc(Br)cc2cc1C(c1ccccc1)n1cc(CCCCCO)nn1` (configuration not stated): the MIC90 is 59.6 µM (≈ 28.7 µg/mL).

With `COc1nc2ccc(Br)cc2cc1C(c1ccccc1)n1cc(-c2ccc(Br)cc2)nn1` (configuration not stated), the MIC90 was determined as 49 µM (≈ 27 µg/mL).

On to `COc1nc2ccc(Br)cc2cc1C(c1ccccc1)n1cc(CO)nn1` (configuration not stated), for which the MIC90 is 131 µM (≈ 55.7 µg/mL).

For the compound `CCCCCCCCc1cn(C(c2ccccc2)c2cc3cc(Br)ccc3nc2OC)nn1` (configuration not stated), the MIC90 was found to be 34.9 µM (≈ 17.7 µg/mL).

Turning to `COc1nc2ccc(Br)cc2cc1C(c1ccccc1)n1cc(-c2ccccc2F)nn1` (configuration not stated), the MIC90 result was “inactive”.

In the case of `CCCCCCc1cn(C(c2ccccc2)c2cc3cc(Br)ccc3nc2OC)nn1` (configuration not stated), the MIC90 was 44.4 µM (≈ 21.3 µg/mL).

As to `COc1nc2ccc(Br)cc2cc1C(c1ccccc1)n1cc(-c2ccccc2)nn1` (configuration not stated), the MIC90 amounted to 161 µM (≈ 75.7 µg/mL).

As for `CCCCCc1cn(C(c2ccccc2)c2cc3cc(Br)ccc3nc2OC)nn1` (configuration not stated), the MIC90 was 80.9 µM (≈ 37.7 µg/mL).

In the case of `COc1nc2ccc(Br)cc2cc1C(c1ccccc1)n1cc(CCCO)nn1` (configuration not stated), the MIC90 entry is “inactive”.

Turning to `COc1nc2ccc(Br)cc2cc1C(c1ccccc1)n1cc(-c2cccc(F)c2)nn1` (configuration not stated), the MIC90 was found to be 31.4 µM (≈ 15.3 µg/mL).

`NNC(=O)c1ccncc1` [ISONIAZID]: the MIC90 amounted to 12.5 µM (≈ 1.72 µg/mL).

`CCOC(=O)c1cn(C(c2ccccc2)c2cc3cc(Br)ccc3nc2OC)nn1` (configuration not stated): the MIC90 result was “inactive”.

`COc1nc2ccc(Br)cc2cc1[C@@H](c1ccccc1)[C@@](O)(CCN(C)C)c1cccc2ccccc12` [BEDAQUILINE]: the MIC90 came to 0.15 µM (≈ 0.0833 µg/mL).

As for `CCCc1cn(C(c2ccccc2)c2cc3cc(Br)ccc3nc2OC)nn1` (configuration not stated), the MIC90 amounted to 45.2 µM (≈ 19.8 µg/mL).

As for `COc1nc2ccc(Br)cc2cc1C(c1ccccc1)n1cc(-c2ccc(F)cc2)nn1` (configuration not stated), the MIC90 result is “inactive”.

On to `COc1nc2ccc(Br)cc2cc1C(c1ccccc1)n1cc(CCO)nn1` (configuration not stated), for which the MIC90 amounted to 133 µM (≈ 58.3 µg/mL).

For `COc1nc2ccc(Br)cc2cc1C(c1ccccc1)n1cc(C2CC2)nn1` (configuration not stated), the MIC90 entry is “inactive”.

For orientation: MIC90 means an inhibitory concentration at the 90% level, which refers to growth in some studies and to a panel of isolates in others.
